Measured values reported in US11046714B2, “2,2-difluorodioxolo A2A receptor antagonists” (Merck Sharp & Dohme Corp., priority 2013, dated 2021).

Molecular target: human A2A receptor (Homo sapiens (Human), UniProt P29274)
Experiment: competition binding assay using Scintillation Proximity technology
Details: membranes from CHO-K1 cells expressing the human A2a receptor; 2.0 nM tritiated compound; Cheng-Prusoff
Experimental: The utility of the compounds in accordance with the present invention as A2A receptor antagonists may be readily determined without undue experimentation by methodologies well known in the art, including by a competition binding assay using Scintillation Proximity technology. Briefly, membranes from CHO-K1 cells expressing the human A2A receptor are incubated with a test compound at various concentrations, e.g., ranging from 3000 nM to 0.15 nM, in a reaction mixture also containing a tritiated form of 5-amino-7-[2-phenethyl]-2-(furan-2-yl)-7H-pyrazolo[4,3-e][1,2,4]triazolo[1,5-c]pyrimidine (the tritiated compound) and wheatgerm agglutin-coated yttrium silicate SPA beads at room temperature. The beads are then allowed to settle to the bottom of the wells, after which the membrane-associated radioactivity is determined by scintillation counting in a microplate reader. Ki values can be determined using the Cheng-Prusoff equation.
Thus, 1.0 μg of membranes from CHO-K1 cells expressing the human A2a receptor were incubated with a compound of the invention at concentrations ranging from 3000 nM to 0.15 nM in a reaction mixture also containing 2.0 nM of a tritiated form of 5-amino-7-[2-phenethyl]-2-(furan-2-yl)-7H-pyrazolo[4,3-e][1,2,4]triazolo[1,5-c]pyrimidine (the tritiated compound) and 100 μg of wheatgerm agglutin-coated yttrium silicate SPA beads for one hour at room temperature with agitation. The beads were then allowed to settle to the bottom of the wells for 1 hr, after which the membrane-associated radioactivity was determined by scintillation counting in a TopCount microplate reader. Ki values were determined using the Cheng-Prusoff equation.
Summary of Materials and Methods Used in A2a Activity Determination:
• Membranes from CHO-K1 cells expressing the human Adenosine2A receptor (Perkin-Elmer #RBHA2AM400UA). • The tritiated compound was prepared according to published methods. • Wheatgerm agglutinin-coated yttrium silicate SPA beads (GE Healthcare #RPNQ0023). Dilute to 25 mg/ml in Assay Buffer. • Assay Buffer: Dulbecco's calcium and magnesium free phosphate buffered saline+10 mM MgCl2 • Adenosine deaminase (ADA) from calf intestine, 10 mg/2 ml (Roche #10 102 105 001). • DMSO • A2a antagonist standard (9-chloro-1-(2-furanyl)-[1,2,4]triazolo[1,5-c]quinazolin-5-amine from Tocris Bioscience) Compound Dilution • Make eight 1:3 serial dilutions in 100% DMSO from a 3 mM compound stock. • Transfer 50 nL of compound into a 384-well OptiPlate (Perkin Elmer). • Typically, final concentrations of compound used in the assay ranged from 3000 nM to 0.152 nM. Radioisotope • Dilute a solution of the tritiated compound to 5.0 nM in assay buffer. This is a 2.5× solution. The final concentration in the assay is 2.0 nM. Calculate the concentration by counting two 5 μL aliquots. Membrane Preparation • Use 1.0 μg of membrane/well. Dilute membranes to 33 μg/mL in assay buffer. Treat with 20 μg/mL ADA for 15 minutes at room temperature to degrade endogenous adenosine. Membrane-Bead Mixture • Use 100 μg/well wheatgerm agglutinin-coated yttrium silicate SPA beads. • Mix ADA-treated membranes and SPA beads together for 30 min prior to assay. Assay Assembly • To the Perkin-Elmer Optiplate-384 containing the compound titration add 20 μL of 2.5× solution of the tritiated compound and 30 μL of the membrane-bead mixture. Incubate for one hour at room temperature with agitation. • Include total binding (assay buffer+1% DMSO) and non-specific binding (CGS 15943, 1 μM) wells. Counting • Allow the beads to settle for one hour. • Count in TopCount. Calculations • A curve fitting program (i.e., Prism, Activity Base, Chemcart) is used to determine the EC50. The Ki value is calculated using the Cheng-Prusoff equation. Ki=EC50/(1+(radioligand concentration/Kd))

Chain of human A2A receptor (P29274 whole entry): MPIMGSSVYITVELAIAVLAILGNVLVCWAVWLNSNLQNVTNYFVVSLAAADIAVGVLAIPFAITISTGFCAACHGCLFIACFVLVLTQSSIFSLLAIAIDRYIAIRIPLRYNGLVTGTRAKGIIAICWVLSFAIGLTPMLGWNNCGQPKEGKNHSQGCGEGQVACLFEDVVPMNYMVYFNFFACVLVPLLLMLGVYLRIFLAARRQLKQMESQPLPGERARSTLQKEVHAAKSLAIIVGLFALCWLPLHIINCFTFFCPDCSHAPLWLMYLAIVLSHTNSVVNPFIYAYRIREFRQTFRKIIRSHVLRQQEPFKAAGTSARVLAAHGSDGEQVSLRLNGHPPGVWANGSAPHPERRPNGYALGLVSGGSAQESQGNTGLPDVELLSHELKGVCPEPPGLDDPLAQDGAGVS

| Compound | Ki |
| --- | --- |
| CC(c1nc2c3ccc4c(c3nc(N)n2n1)OC(F)(F)O4)N1CC(F)(F)C1 (single isomer, unassigned) [Example 131, (R or S)-8-[1-(3,3-difluoroazetidin-1-yl)ethyl]-2,2-difluoro[1,3]dioxolo [4,5-h][1,2,4]triazolo[1,5-c]quinazolin-5-amine] | 130 nM |
| CC(c1nc2c3ccc4c(c3nc(N)n2n1)OC(F)(F)O4)N1CC(F)(F)C1 (single isomer, unassigned) [Example 132, (R or S)-8-[1-(3,3-difluoroazetidin-1-yl)ethyl]-2,2-difluoro[1,3]dioxolo [4,5-h][1,2,4]triazolo[1,5-c]quinazolin-5-amine] | 56 nM |
| CC(c1nc2c3ccc4c(c3nc(N)n2n1)OC(F)(F)O4)N1C[C@H](F)[C@@H](F)C1 (single isomer, unassigned) [Example 133, (R or S)-8-{1-[(3S,4S)-3,4-difluoropyrrolidin-1-yl]ethyl}-2,2-difluoro[1,3]dioxolo[4,5-h][1,2,4]triazolo[1,5-c]quinazolin-5-amine] | 64 nM |
| CC(c1nc2c3ccc4c(c3nc(N)n2n1)OC(F)(F)O4)N1CCCC(F)(F)C1 (single isomer, unassigned) [Example 135, 8-[(1S or 1R)-1-(3,3-difluoropiperidin-1-yl)ethyl]-2,2-difluoro[1,3]dioxolo [4,5-h][1,2,4]triazolo[1,5-c] quinazolin-5-amine] | 89 nM |
| Nc1nc2c3c(ccc2c2nc(C4CCCN(CCC(F)(F)F)C4)nn12)OC(F)(F)O3 (single isomer, unassigned) [Example 141, (R or S)-2,2-difluoro-8-(1-(3,3,3-trifluoropropyl)piperidin-3-yl)-[1,3]dioxolo[4,5-h][1,2,4]triazolo[1,5-c]quinazolin-5-amine] | 55 nM |
| Nc1nc2c3c(ccc2c2nc(C4CCCN(c5cccc(F)c5)C4)nn12)OC(F)(F)O3 (single isomer, unassigned) [Example 143, (R or S)-2,2-difluoro-8-[1-(3-fluorophenyl)piperidin-3-yl][1,3]dioxolo[4,5-h][1,2,4]triazolo[1,5-c]quinazolin-5-amine] | 59 nM |
| Nc1nc2c3c(ccc2c2nc(C4CCCN(c5cc(F)cc(F)c5)C4)nn12)OC(F)(F)O3 (single isomer, unassigned) [Example 145, (R or S)-8-[1-(3,5-difluorophenyl)piperidin-3-yl]-2,2-difluoro[1,3] dioxolo[4,5-h][1,2,4]triazolo[1,5-c]quinazolin-5-amine] | 140 nM |
| Nc1nc2c3c(ccc2c2nc(C4CCCN(c5cncnc5)C4)nn12)OC(F)(F)O3 (single isomer, unassigned) [Example 146, (R or S)-2,2-difluoro-8-(1-pyrimidin-5-ylpiperidin-3-yl)[1,3]dioxolo[4,5-h][1,2,4]triazolo[1,5-c]quinazolin-5-amine] | 44 nM |
| COCCN1CCC(Cc2nc3c4ccc5c(c4nc(N)n3n2)OC(F)(F)O5)C1 (single isomer, unassigned) [Example 157, (R or S)-2,2-difluoro-8-{[1-(2-methoxyethyl)pyrrolidin-3-yl]methyl}[1,3]dioxolo [4,5-h][1,2,4]triazolo[1,5-c]quinazolin-5-amine] | 75 nM |

Now those with a lower Ki, led by results:

| Ki | Compound |
| --- | --- |
| 2.2 nM | Nc1nc2c3c(ccc2c2nc(CC(C(F)F)N4Cc5cccnc5C4)nn12)OC(F)(F)O3 (single isomer, unassigned) [Example 97, (R or S)-8-(3,3-difluoro-2-(5H-pyrrolo[3,4-b]pyridin-6(7H)-yl)propyl)-2,2-difluoro-[1,3]dioxolo[4,5-h][1,2,4]triazolo[1,5-c]quinazolin-5-amine] |
| 6.6 nM | Nc1nc2c3c(ccc2c2nc(CC(C(F)F)N4Cc5cccnc5C4)nn12)OC(F)(F)O3 (single isomer, unassigned) [Example 98, (R or S)-8-(3,3-difluoro-2-(5H-pyrrolo[3,4-b]pyridin-6(7H)-yl)propyl)-2,2-difluoro-[1,3]dioxolo[4,5-h][1,2,4]triazolo[1,5-c]quinazolin-5-amine] |
| 24 nM | CC(c1nc2c3ccc4c(c3nc(N)n2n1)OC(F)(F)O4)N1C[C@H](F)[C@@H](F)C1 (single isomer, unassigned) [Example 134, (R or S)-8-{1-[(3S,4S)-3,4-difluoropyrrolidin-1-yl]ethyl}-2,2-difluoro[1,3]dioxolo[4,5-h][1,2,4]triazolo[1,5-c]quinazolin-5-amine] |
| 25 nM | CC(c1nc2c3ccc4c(c3nc(N)n2n1)OC(F)(F)O4)N1CCCC(F)(F)C1 (single isomer, unassigned) [Example 136, 8-[(1S or 1R)-1-(3,3-difluoropiperidin-1-yl)ethyl]-2,2-difluoro[1,3]dioxolo [4,5-h][1,2,4]triazolo[1,5-c] quinazolin-5-amine] |
| 0.8 nM | Nc1nc2c3c(ccc2c2nc(C4CCCN(CCC(F)(F)F)C4)nn12)OC(F)(F)O3 (single isomer, unassigned) [Example 140, (R or S)-2,2-difluoro-8-(1-(3,3,3-trifluoropropyl)piperidin-3-yl)-[1,3]dioxolo[4,5-h][1,2,4]triazolo[1,5-c]quinazolin-5-amine] |
| 1.2 nM | Nc1nc2c3c(ccc2c2nc(C4CCCN(c5cccc(F)c5)C4)nn12)OC(F)(F)O3 (single isomer, unassigned) [Example 142, (R or S)-2,2-difluoro-8-[1-(3-fluorophenyl)piperidin-3-yl][1,3]dioxolo[4,5-h][1,2,4]triazolo[1,5-c]quinazolin-5-amine] |
| 1.2 nM | Nc1nc2c3c(ccc2c2nc(C4CCCN(c5cc(F)cc(F)c5)C4)nn12)OC(F)(F)O3 (single isomer, unassigned) [Example 144, (R or S)-8-[1-(3,5-difluorophenyl)piperidin-3-yl]-2,2-difluoro[1,3] dioxolo[4,5-h][1,2,4]triazolo[1,5-c]quinazolin-5-amine] |
| 2.9 nM | Nc1nc2c3c(ccc2c2nc(C4CCCN(c5cncnc5)C4)nn12)OC(F)(F)O3 (single isomer, unassigned) [Example 147, (R or S)-2,2-difluoro-8-(1-pyrimidin-5-ylpiperidin-3-yl)[1,3]dioxolo[4,5-h][1,2,4]triazolo[1,5-c]quinazolin-5-amine] |
| 20 nM | Nc1nc2c3c(ccc2c2nc(CC4CCN(CCC(F)(F)F)C4)nn12)OC(F)(F)O3 (single isomer, unassigned) [Example 154, (R or S)-2,2-difluoro-8-{[1-(3,3,3-trifluoropropyl)pyrrolidin-3-yl]methyl}[1,3]dioxolo[4,5-h][1,2,4]triazolo[1,5-c]quinazolin-5-amine] |
| 7.2 nM | Nc1nc2c3c(ccc2c2nc(CC4CCN(CCC(F)(F)F)C4)nn12)OC(F)(F)O3 (single isomer, unassigned) [Example 155, (R or S)-2,2-difluoro-8-{[1-(3,3,3-trifluoropropyl)pyrrolidin-3-yl]methyl}[1,3]dioxolo[4,5-h][1,2,4]triazolo[1,5-c]quinazolin-5-amine] |
| 5.3 nM | Nc1nc2c3c(ccc2c2nc(CC4CCN(CC(F)F)C4)nn12)OC(F)(F)O3 (single isomer, unassigned) [Example 156, (R or S)-8-{[1-(2,2-difluoroethyl)pyrrolidin-3-yl]methyl}-2,2-difluoro[1,3]dioxolo[4,5-h][1,2,4]triazolo[1,5-c]quinazolin-5-amine] |
| 12 nM | Nc1nc2c3c(ccc2c2ncnn12)OC(F)(F)O3 [Example 1, 2,2-difluoro-[1,3]dioxolo[4,5-h][1,2,4]triazolo[1,5-c]quinazolin-5-amine] |
| 6.2 nM | Cc1nc2c3ccc4c(c3nc(N)n2n1)OC(F)(F)O4 [Example 2, 2,2-difluoro-8-methyl-[1,3]dioxolo[4,5-h][1,2,4]triazolo[1,5-c]quinazolin-5-amine] |
